Experiments:
Friend leukemia cells = conditions: cited from earlier work
[1] = system: human fetal (γ) globin gene; conditions: cited from earlier work
fetal globin = conditions: pharmacological doses, phenylhydrazine-anemic chickens; cited from earlier work
[2] = system: fetal globin expression in K562 human erythroleukemia cells; conditions: cited from earlier work
histone acetylation = conditions: cited from earlier work
[3] = system: gamma globin (erythroblasts of sickle cell anemia patients); experiment: Induction of fetal globin in erythroblasts by steel factor; format: cell-based, human; conditions: 100 ng/ml
Method: Peripheral blood was obtained from patients with sickle cell anemia. Mononuclear cells were isolated on Ficoll-Hypaque gradients. One culture was treated with 100 ng/ml steel factor for 13 days and compared with an untreated control. […] A second culture was incubated overnight with an identical dose of steel factor plus ^3 H-leucine. Amounts of labeled globin proteins synthesized in untreated (FIG. 5A) and steel factor treated (FIG. 5B) cells were determined by autoradiography and quantitated (scanned) by laser densitometry.

anemic baboon = experiment: In vivo reticulocyte proliferation, globin expression and blood counts in anemic (phlebotomized) baboons; conditions: for Fetal reticulocytes: baseline 4%
Method: Experiments were performed to determine if administration of the chemical compositions could induce fetal globin gene expression in an in vivo model similar to humans (S. P. Perrine et al., Brit. J. Haematol. 88:555-61, 1994). Briefly, chemicals were prepared as sterile pharmaceutical solutions in pH adjusted sterile water. A variety of chemical compositions were administered sequentially to some baboons. After administration of one compound, a wash-out period with no compound administration was maintained until reticulocytes returned to base line prior to administration of the next compound. This was done, at least partly, to compare the magnitude of response which occurred within the same individual animal to different compounds.
Briefly, juvenile female baboons (2 years old) were catheterized with arterial and venous catheters and phlebotomized gradually every day to maintain a moderate anemia of 7.0 to 7.5 grams hemoglobin/dl. Fetal reticulocytes, the newly produced red blood cells containing fetal globin, were assayed using a monoclonal antibody against fetal globin (HbF) as described by G. Dover et al. (Blood 67:735-38, 1986). Briefly, blood was stained with two antibodies, one specific for reticulocytes and another against fetal globin protein. The amount of antibody bound cells was determined by FACS analysis. Globin chain synthesis was assayed as described by J. B. Clegg et al. (J. Mol. Biol. 19:91-108, 1966). Briefly, reticulocytes were radio-labeled with ^3 H-leucine which was incorporated in equal proportions into actively synthesized globin chains. After incubation in leucine-free media, cells were washed, and globin proteins were separated and purified by column chromatography. Radioactivity incorporated into each peak is compared and the ratios of gamma to gamma plus beta globin calculated. Each animal served as its own control with baseline monitoring assays performed for 4-6 weeks before any drug was administered. Phlebotomy was continued daily, so that peripheral HbF levels in the animals were not considered to be accurate over the short treatment time-frames and were not monitored. Safety monitoring was performed by frequent physical examinations, quantitation of food eaten, activity and frequent chemistry and hematology monitoring. Complete blood counts were assayed before, during and after treatment. Results presented were not adjusted to account for the daily phlebotomy.

[4] = system: fetal globin synthesis in erythroid progenitors; conditions: cited from earlier work
[5] = 25 and 100 μg/kg s.c., undetectable before treatment

Row | Compound | hemoglobin synthesis (Friend leukemia cells) | transcription of the human fetal (γ) globin gene [1] | expression of fetal globin (fetal globin) | increase of fetal globin expression [2] | level of histone acetylation (histone acetylation) | mean increase in gamma globin expression ([3]; 13 days, vs untreated control) [%] | gamma globin expression in BFU-e cells ([3]; 13 days, from 14%) [%] | globin proteins included in the increase ([3]; overnight) | Gamma globin expression ([3]; overnight + 3H-leucine, untreated 17.6%) [%] | Fetal reticulocytes (anemic baboon; 25 μg/kg s.c. daily, 4 days (FIG. 10)) [%] | Fetal reticulocytes (anemic baboon; 100 μg/kg s.c., four days, after wash-out) [%] | rise in numbers of newly-formed blood cells producing fetal globin (anemic baboon; 25 and 100 μg/kg s.c.) | total increase of gamma globin expression in the bone marrow (anemic baboon; 25 and 100 μg/kg s.c.) [fold] | fetal globin chain protein (anemic baboon; [5]) | rise in fetal globin chain protein (anemic baboon; [5]) [fold] | fetal globin synthesis [4]
1 | CCCC(=O)O [butyric acid] | induced hemoglobin synthesis | accurately and specifically stimulated transcription of the human fetal (γ) globin gene | greatly increased expression of fetal globin | much less of an effect | may act by increasing the level of histone acetylation |  |  |  |  |  |  |  |  |  |  | 
2 | steel factor: hematopoietic factor, steel factor, also referred to as kit ligand, mast cell growth factor and stem cell factor |  |  |  |  |  | 16.1 | 23.3 | included both G-γ and A-γ globin proteins | 43.3 | 15 | 12 | 300-500% | 9 | about 3 % of total non-alpha globin | 3 | capable of influencing fetal globin synthesis in erythroid progenitors
